Reference: paper PMC12498288 (Frontiers in Immunology, 2025)
Several values for one entry are separate records, joined by “and”; a condition that tells them apart may be missing. Equal entries are not always repeated.

Key:
[1] = test system: cytokine and chemokine gene expression; assay: LPS-induced acute lung injury (ALI) mouse model, lung cytokine/chemokine mRNA (RT2 profiler PCR array)
human PBMCs = assay: Cytokine and chemokine levels in LPS-stimulated human PBMCs (ELISA); assay type: cell-based; settings: 1 µg/mL LPS, 10 µg/mL zapnometinib, 6 h, vs untreated control
Description: Human peripheral blood mononuclear cells (PBMCs) were isolated from healthy volunteers registered with the Biobank of the Department of Immunology at the University of Tuebingen, after informed consent documented in writing. Ethical approval was obtained upon review by the Ethics Board of the Medical Faculty of the Eberhard Karls University Tuebingen and the University Hospital Tuebingen (887/2020BO2). Briefly, 50 ml whole blood (roughly 5x10^7 PBMCs) of two donors were taken in 50 ml syringes (BD Biosciences, Franklin Lakes, New Jersey, USA) supplied with heparin-natrium (100.000 I.E./ml; Braun, Melsungen, Germany). The whole blood was mixed with PBS (Gibco, Carlsbad, California, USA) in a 1:1 ratio in 50 ml tubes (Greiner Bio-One, Frickenhausen, Germany), and PBMCs were subsequently isolated from the whole blood by density gradient centrifugation using Histopaque®-1077 (Sigma-Aldrich, St. Louis, Missouri, USA) as density gradient medium. Five millilitres of plasma per donor were preserved for cell culture medium preparation. The PBMCs were then purified by washing them twice with PBS.
2x10^6 human PBMCs from two donors each were suspended in 1 mL RPMI 1640 medium (Gibco) containing 5% autologous plasma, 1% penicillin/streptomycin (Sigma-Aldrich), and 1% L-glutamine (Sigma-Aldrich) and were treated with 1 μg/mL LPS from E. coli O55:B5 (prepared in PBS) and 10 μg/mL zapnometinib (prepared in DMSO and diluted in cell culture medium to a final concentration of 0.1% DMSO) for 6 h at 37°C and 5% CO2. The supernatants (cell culture medium) were collected and stored at -20°C until analysis by ELISA. Ready-to-use ELISA kits (Invitrogen, Waltham, Massachusetts, USA) were used according to the manufacturer’s instructions to determine the levels of the following cytokines: IL-1β, IL-6, IL-8, IP-10, MCP-1, MIP-1α, and TNF-α. Briefly, the samples and standards were applied to ELISA plates pre-coated with specific antibodies targeting the cytokines of interest. Biotinylated detection antibodies binding to the cytokines of interest were added to the wells followed by a horseradish peroxidase (HRP)-streptavidin conjugate, which binds to the biotinylated detection antibodies. Unbound cytokines, detection antibodies, and HRP-streptavidin conjugate were removed by washing. Tetramethylbenzidine (TMB) substrate was added, and the color change in the wells served as the readout for the ELISA. Optical density (OD) at 450 nm was measured using a SpectraMAX Plus 384 microplate reader. For IL-1β, IL-8, MCP-1, and TNF-α the OD was also read at a reference wavelength of 620 nm, and for IL-6 at a reference wavelength of 550 nm. For IP-10 and MIP-1α no reference wavelength was used. Cytokine and chemokine concentrations were calculated following the manufacturer’s instructions for interpolating unknown concentrations from a standard curve.

HCoV 229E = assay: Virus yield reduction assay, HCoV-229E on MRC-5 cells (RT-qPCR); assay type: cell-based; settings: Human coronavirus 229E, MRC5, MOI 0.001, 48 h
Description: The virus yield reduction assay of HCoV-229E and HCoV-OC43 was performed on MRC-5 cells seeded at 1.5x10^5 cells per well in 24-well plates 24 h prior infection with HCoV-229E (MOI 0.001) or HCoV-OC43 (MOI 0.1) for 1 h. The inoculum was completely removed, and the cells were treated with different concentrations of zapnometinib (50 µM to 0.006 µM) and a solvent control in Iscove’s Modified Dulbecco’s Medium (IMDM) containing 2% FBS, 1% Penicillin/Streptomycin at 34°C, 5% CO2 for 24 h (HCoV-OC43) or 48 h (HCoV-229E). Supernatants were harvested and the viral titer was determined by a real-time one-step multiplex RT-qPCR using specific primers targeting the N and NS2 genes for HCoV-229E and HCoV-OC43 respectively ( Supplementary Table 1 ) EC50 values were calculated based on the measured viral titers normalized to the solvent control (1% DMSO) and using the “log(inhibitor) vs. response - Variable slope (four parameters)” analysis in GraphPad Prism v9.

[2] = test system: cytokine and chemokine levels; assay: RESPIRE Phase 2 trial, cytokines/chemokines in hospitalized COVID-19 patients (MesoScale V-Plex); assay type: in vivo, human; settings: vs placebo
Source text: For standard of care treatment see Supplementary Table 5 .

[3] = parameters: method as in PMID 38106555; settings: hospitalized COVID-19 patients; cited from earlier work

O=C(O)c1ccc(F)c(F)c1Nc1ccc(I)cc1Cl [zapnometinib]
expression of most of the 84 genes (e.g. Il1b, IL-6, ccl2, cxcl1, cxcl10, ccl3) ([1]; 5 mg/kg LPS i.p., 25 mg/kg p.o. 1 h post-stimulation, lung, 6 h post treatment, vs control): downregulated | Cxcl1 gene expression in lung tissue ([1]; 25 mg/kg p.o. 1 h after LPS): significantly reduced | Il6 gene expression in lung tissue ([1]; 25 mg/kg p.o. 1 h after LPS): significantly reduced | Tnf gene expression in lung tissue ([1]; 25 mg/kg p.o. 1 h after LPS): significantly reduced | Ifna2 gene (IFN-α) expression ([1]; 25 mg/kg p.o. 1 h after LPS, lung, p = 0.118): not significantly downregulated | IL-1β expression level (human PBMCs): significantly reduced | IL-6 expression level (human PBMCs): significantly reduced | IL-8 expression level (human PBMCs): significantly reduced | IP-10 expression level (human PBMCs): significantly reduced | MCP-1 expression level (human PBMCs): significantly reduced | MIP-1α expression level (human PBMCs): significantly reduced | TNF-α expression level (human PBMCs): significantly reduced | EC50 (HCoV 229E): 26.6 µM and 10.9 µg/mL | IL-8/CXCL-8 levels ([2]; up to day 30): slight but not statistically significant increase | TNF-α levels ([2]; up to day 30): no changes | MCP-1 levels ([2]; up to day 30, 900 mg D1 then 600 mg daily D2-6, p = <0.0001): significant reduction | IL-6 levels ([2]; up to day 30, p = 0.0017): significantly reduced | IFNγ levels ([2]; up to day 30, p = <0.0001): significant reduction | MIP-1α levels ([2]; up to day 30, p = <0.0001): significant reduction | safety and tolerability [3]: safe and well-tolerated
